Test results published in PubChem BioAssay (NCI).
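Briefly, cells in 96-well plates were exposed to five compound concentrations for 48 h, and endpoints were estimated by linear interpolation. TGI: concentration producing complete growth inhibition.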

Legend:
Experiment in all cases: inhibition of tumour cell growth, NCI panel, 48 h
[1] = system: CAKI-1 renal
[2] = system: COLO 205 colon
[3] = system: HL-60(TB) leukemia
[4] = system: HS 578T breast
[5] = system: K-562 leukemia
[6] = system: MCF7 breast
[7] = system: MOLT-4 leukemia
[8] = system: NCI-H522 lung
[9] = system: NCI/ADR-RES ovarian
[10] = system: OVCAR-3 ovarian
[11] = system: SF-295 CNS

Measured: TGI

CC(C)(C)CC(C)(C)NC(=S)NO
> 100 µM: all assays above

O=S(=O)(O)c1cccc2cccc(N=Nc3c(O)ccc4ccccc34)c12
> 100 µM: all assays above
